How the values were obtained:
[1] = Potency results of ezatiostat hydrochloride in binary mixtures, formulations and alone stored at 40° C. and 75% RH; assay type: physicochemical; conditions: for Potency: 40° C. and 75% RH
Protocol: (§1) Further, ezatiostat hydrochloride was mixed with each of the excipients mentioned in Table 3. The quantity of excipient used was determined by the desired properties of the resulting formulation. These blends were prepared in scintillation vials which were screw Teflon capped and stored at 40° C. and 75% RH.
The potency results of ezatiostat hydrochloride in the binary mixtures of Table 3, Formulations 1 and 2 of Table 2, and ezatiostat hydrochloride alone stored at 40° C. and 75% RH are shown in Table 4.

[2] = Degradation products by HPLC of binary mixtures and formulations of ezatiostat hydrochloride over time; assay type: physicochemical; conditions: 40° C. and 75% RH
Protocol: as §1
The degradation products were evaluated for each sample using HPLC at initial, 4 weeks, and 8 weeks period. For the initial and 4 week samples, the HPLC autosampler temperature was set at ambient but it was set at 5° C. for samples tested at 8 weeks. The autosampler temperature was lowered due to an observation that individual impurities were increasing during the HPLC run.
The inconsistent results obtained at four weeks were attributed to higher temperature used during HPLC. For this reason, the data at four weeks is not probative for the underlying study.

[3] = 4 weeks, autosampler ambient (data called not probative)

CCOC(=O)[C@@H](N)CCC(=O)N[C@@H](CSCc1ccccc1)C(=O)N[C@@H](C(=O)OCC)c1ccccc1.Cl [Ezatiostat•HCl, ethyl (2S)-2-amino-5-[[(2R)-3-benzylsulfanyl-1-[[(JR)-2-ethoxy-2-oxo-1-phenylethyl]amino]-1-oxopropan-2-yl]amino]-5-oxopentanoate] gave a Potency ([1]; T = 0 weeks) of 102.1%, a Potency ([1]; T = 4 weeks) of 102.0% and a Potency ([1]; T = 8 weeks) of 100.4%. For the same molecule, the Excipient compatibility ([1]; eight weeks at 40° C. and 75% RH) was “compatible with all the excipients investigated above”, the “Potency change over eight weeks” value ([1]; storage at 40° C. and 75% RH) was “little change” and the “RS(% Area) RRT 0.74” value ([2]; 0 weeks, autosampler ambient) was 0.13% Area. The “RS(% Area) RRT 0.88” value ([2]; 0 weeks, autosampler ambient) was 0.09% Area, the “RS(% Area) Total” value ([2]; 0 weeks, autosampler ambient) was 0.22% Area and the “RS(% Area) RRT 0.74” value [2, 3] was 0.28% Area. For the same molecule, the “RS(% Area) RRT 0.88” value [2, 3] was 0.27% Area, the “RS(% Area) Total” value [2, 3] was 0.55% Area and the “RS(% Area) RRT 0.74” value ([2]; 8 weeks, autosampler 5° C.) was 0.07% Area. For the same molecule, the “RS(% Area) RRT 0.88” value ([2]; 8 weeks, autosampler 5° C.) was 0.51% Area, the “RS(% Area) Total” value ([2]; 8 weeks, autosampler 5° C.) was 0.58% Area and the “RS(% Area) RRT 0.88” value ([2]; 8 weeks, autosampler 5° C., listed as ezatiostat hydrochloride) was 0.51 % Area.

From patent US20120283325A1, “EXCIPIENT COMPATIBILITY WITH EZATIOSTAT” (Telik, Inc., priority 2011, published 2012)
